Test results taken from patent US20250375455A1 (priority 2022, published 2025).
Values after ≈ are worked out from the molar mass of the structure shown. Counter-ions that a name gives are not always drawn. Like-named read-outs stand apart in the source and are kept apart here.

Assays:
Assay in all cases: microbe, parasite or virus in culture
M. bovis = assay type: cell-based, Mycobacterium bovis; conditions: for MIC: Mycobacterium tuberculosis variant bovis
Mtb-lineage4 = assay type: cell-based, Mycobacterium tuberculosis; conditions: for direct inhibition of growth: Mtb-lineage4, in-vitro, 5, 10 and 50 μM, over 20 days
Mtb-lineage2 = assay type: cell-based, Mycobacterium tuberculosis; conditions: for direct inhibition of growth: Mtb-lineage2, in-vitro, 5, 10 and 50 μM, over 20 days; for MIC / IC50: Mycobacterium tuberculosis
Maf-lineage6 = assay type: cell-based, Mycobacterium africanum; conditions: for direct inhibition of growth: Maf-lineage6, in-vitro, 5, 10 and 50 μM, over 20 days; for MIC: Mycobacterium tuberculosis
Maf-lineage5 = assay type: cell-based, Mycobacterium africanum; conditions: for direct inhibition of growth: Maf-lineage5, in-vitro, 5, 10 and 50 μM, over 20 days

## Cc1ccc(NC(=O)c2ccc(CN3CCN(C)CC3)cc2)cc1Nc1nccc(-c2cccnc2)n1 [Imatinib, Imatinib mesylate]
M. bovis
  direct inhibition of growth: directly restricted the growth
  susceptibility to direct inhibition: more susceptible to direct inhibition
M. bovis; 240 h
  MIC: 8.39 µM
M. bovis; 288 h
  MIC: 21.1 µM
M. bovis; 312 h
  MIC: 25.6 µM
M. bovis; 336 h
  MIC: 30.3 µM
M. bovis; 360 h
  MIC: 35.2 µM
M. bovis; […]
  MIC: 16.3 µM
Mtb-lineage4; Example 4, Mtb-lineage4, concentrations up to 200 μM
  susceptibility to direct inhibition: more susceptible to direct inhibition
Mtb-lineage4; Mtb-lineage4, Day 11
  MIC: Unstable
Mtb-lineage4; Mtb-lineage4, Day 12
  MIC: Unstable
Mtb-lineage4; Mtb-lineage4, Day 13
  MIC: Unstable
Mtb-lineage4; Mtb-lineage4, Day 14
  MIC: Unstable
Mtb-lineage4
  direct inhibition of growth: not
Mtb-lineage4; Mycobacterium tuberculosis, 240 h, Mtb-lineage4, Day 10, read-out: MIC
  MIC: 98.8 µM
Mtb-lineage2; Example 4, Mtb-lineage2, concentrations up to 200 μM
  susceptibility to direct inhibition: more susceptible to direct inhibition
Mtb-lineage2
  direct inhibition of growth: directly restricted the growth
Mtb-lineage2; 240 h, Mtb-lineage2 (a), Day 10, read-out: MIC
  MIC: 56 µM
Mtb-lineage2; 240 h, Mtb-lineage2 (b), Day 10, read-out: MIC
  MIC: 60.4 µM
Mtb-lineage2; 240 h, Mtb-lineage2, Day 10, read-out: MIC
  MIC: 56 µM
Mtb-lineage2; 288 h, Mtb-lineage2 (a), Day 12, read-out: MIC
  MIC: 56.7 µM
Mtb-lineage2; 288 h, Mtb-lineage2 (b), Day 12, read-out: MIC
  MIC: 60.7 µM
Mtb-lineage2; 288 h, Mtb-lineage2, Day 12, read-out: MIC
  MIC: 56.7 µM
Mtb-lineage2; 312 h, Mtb-lineage2 (a), Day 13, read-out: MIC
  MIC: 57.1 µM
Mtb-lineage2; 312 h, Mtb-lineage2 (b), Day 13, read-out: MIC
  MIC: 60.5 µM
Mtb-lineage2; 312 h, Mtb-lineage2, Day 13, read-out: MIC
  MIC: 57.1 µM
Mtb-lineage2; 336 h, Mtb-lineage2 (a), Day 14, read-out: MIC
  MIC: 57.4 µM
Mtb-lineage2; 336 h, Mtb-lineage2 (b), Day 14, read-out: MIC
  MIC: 85.4 µM
Mtb-lineage2; 336 h, Mtb-lineage2, Day 14, read-out: MIC
  MIC: 57.4 µM
Mtb-lineage2; 360 h, Mtb-lineage2 (a), Day 15, read-out: MIC
  MIC: 57.8 µM
Mtb-lineage2; 360 h, Mtb-lineage2 (b), Day 15, read-out: MIC
  MIC: 86.7 µM
Mtb-lineage2; […], Mtb-lineage2 (a), Day 11, read-out: MIC
  MIC: 56.4 µM
Mtb-lineage2; […], Mtb-lineage2 (b), Day 11, read-out: MIC
  MIC: 61 µM
Mtb-lineage2; […], Mtb-lineage2, Day 11, read-out: MIC
  MIC: 56.4 µM
Maf-lineage6
  response to drug: didn't respond
  direct inhibition of growth: not
Maf-lineage6; Example 4, Maf-lineage6 (c), concentrations up to 200 μM
  susceptibility to direct inhibition: more susceptible to direct inhibition
Maf-lineage6; 240 h, Maf-lineage6 (a), Day 10
  MIC: ~0.743 µM
Maf-lineage6; 240 h, Maf-lineage6 (b), Day 10
  MIC: ~9090 µM
Maf-lineage6; 240 h, Maf-lineage6 (c), Day 10
  MIC: 101 µM
Maf-lineage6; 240 h, Maf-lineage6 (d), Day 10
  MIC: ~46400 µM
Maf-lineage6; 288 h, Maf-lineage6 (a), Day 12
  MIC: ~0.594 µM
Maf-lineage6; 288 h, Maf-lineage6 (b), Day 12
  MIC: 1460 µM
Maf-lineage6; 288 h, Maf-lineage6 (c), Day 12
  MIC: 100 µM
Maf-lineage6; 312 h, Maf-lineage6 (a), Day 13
  MIC: ~0.562 µM
Maf-lineage6; 312 h, Maf-lineage6 (b), Day 13
  MIC: 1260 µM
Maf-lineage6; 312 h, Maf-lineage6 (c), Day 13
  MIC: 100 µM
Maf-lineage6; 336 h, Maf-lineage6 (a), Day 14
  MIC: ~0.541 µM
Maf-lineage6; 336 h, Maf-lineage6 (b), Day 14
  MIC: 1520 µM
Maf-lineage6; 336 h, Maf-lineage6 (c), Day 14
  MIC: 100 µM
Maf-lineage6; 360 h, Maf-lineage6 (a), Day 15
  MIC: ~0.515 µM
Maf-lineage6; 360 h, Maf-lineage6 (b), Day 15
  MIC: ~3590 µM
Maf-lineage6; 360 h, Maf-lineage6 (c), Day 15
  MIC: 100 µM
Maf-lineage6; […], Maf-lineage6 (a), Day 11
  MIC: ~0.721 µM
Maf-lineage6; […], Maf-lineage6 (b), Day 11
  MIC: ~2390 µM
Maf-lineage6; […], Maf-lineage6 (c), Day 11
  MIC: 101 µM
Maf-lineage5; 240 h, Maf-lineage5, Day 10
  MIC: 58.1 µM
Maf-lineage5; 288 h, Maf-lineage5, Day 12
  MIC: 60.8 µM
Maf-lineage5; 312 h, Maf-lineage5, Day 13
  MIC: 62 µM
Maf-lineage5; 336 h, Maf-lineage5, Day 14
  MIC: 63.4 µM
Maf-lineage5; 360 h, Maf-lineage5, Day 15
  MIC: 65.2 µM
Maf-lineage5; Example 4, Maf-lineage5, concentrations up to 200 μM
  susceptibility to direct inhibition: more susceptible to direct inhibition
Maf-lineage5; Maf-lineage5, Day 11
  MIC: 59.5 µM
Maf-lineage5
  direct inhibition of growth: not

## COc1cc2ncnc(Nc3ccc(F)c(Cl)c3)c2cc1OCCCN1CCOCC1 [Gefitinib]
Mtb-lineage2; 240 h
  MIC: 54.3 µM (≈ 24.3 µg/mL)
Mtb-lineage2; 288 h
  MIC: 54.3 µM (≈ 24.3 µg/mL)
Mtb-lineage2; 312 h
  MIC: 52.2 µM (≈ 23.3 µg/mL)
Mtb-lineage2; 336 h
  MIC: 54.8 µM (≈ 24.5 µg/mL)
Mtb-lineage2; […]
  MIC: 52.7 µM (≈ 23.6 µg/mL)

## C#Cc1cccc(Nc2ncnc3cc(OCCOC)c(OCCOC)cc23)c1 [Erlotinib]
M. bovis
  direct inhibition of growth: directly inhibit growth
Mtb-lineage4
  direct inhibition of growth: directly inhibit growth
Mtb-lineage2
  direct inhibition of growth: directly inhibit growth
Mtb-lineage2; 360 h, Mtb-lineage2, Day 15
  IC50: 16.3 µM
Mtb-lineage2; 360 h, Mtb-lineage2, Day 15, read-out: MIC
  MIC: 33 µM (≈ 13 µg/mL)
Mtb-lineage2; 384 h, Mtb-lineage2, Day 16
  IC50: 10.1 µM
Mtb-lineage2; 384 h, Mtb-lineage2, Day 16, read-out: MIC
  MIC: ~1.07 µM (≈ 0.423 µg/mL)
Mtb-lineage2; 408 h, Mtb-lineage2, Day 17
  IC50: 8.65 µM
Mtb-lineage2; 408 h, Mtb-lineage2, Day 17, read-out: MIC
  MIC: 41 µM (≈ 16.1 µg/mL)
Mtb-lineage2; 456 h, Mtb-lineage2, Day 19
  IC50: 6.79 µM
Mtb-lineage2; 456 h, Mtb-lineage2, Day 19, read-out: MIC
  MIC: 49.4 µM (≈ 19.4 µg/mL)
Mtb-lineage2; 480 h, Mtb-lineage2, Day 20
  IC50: 6.19 µM
Mtb-lineage2; […], Mtb-lineage2, Day 18
  IC50: 7.61 µM
Mtb-lineage2; […], Mtb-lineage2, Day 18, read-out: MIC
  MIC: 43.6 µM (≈ 17.1 µg/mL)
Maf-lineage6
  direct inhibition of growth: directly inhibit growth
Maf-lineage5
  direct inhibition of growth: directly inhibit growth
